Results from patent publication US9155791B2, “Metallation enhancements in tumor-imaging and PDT therapy” (Health Research, Inc., priority 2010, dated 2015).

System: tumors
Experiment: Fluorescence tumor imaging dose versus PDT therapeutic dose (FIG. 4)
Assay type: in vivo

CCCCCCOC(C)c1c(C)c2cc3nc(c4c5[nH]c(cc6nc(cc1[nH]2)C(C)=C6CC)c(C)c5C(=O)C4)C(CCC(=O)Nc1ccc(SC2=C(C=CC4=[N+](CCCCS(=O)(=O)[O-])c5ccc6ccccc6c5C4(C)C)CCCC2=CC=C2N(CCCCS(=O)(=O)[O-])c4ccc5ccccc5c4C2(C)C)cc1)C3C.[Na+] (stereo not shown) [HPPH-CD]
therapeutic dose relative to tumor-imaging dose (fold higher): ~10 fold
